From patent US20250241942A1, “METHODS OF SYNTHESIZING CONDUCTIVE POLYMERS IN BIOLOGICAL SYSTEMS AND METHODS OF USING CONDUCTIVE POLYMERS” (Purdue Research Foundation, priority 2024, published 2025) come the findings set out here.

Like-named read-outs stand apart in the source and are kept apart here.

Data set [1] can be described thus: Subcutaneous administration of BDF and n-PBDF solutions in mice, observation and complete blood count. The settings on record: mouse, in vivo, sc. The source says: Furthermore, the non-toxicity of the polymerization process and the resulting polymer was confirmed by subcutaneously administering BDF and n-PBDF solutions in mice. […] The investigations reported below explored the use of n-PBDF to modulate the neural activity of cortical pyramidal neurons in mice acute brain slices, showing the interaction of n-PBDF with the neurons at a cellular level, leading to a decrease in the intrinsic excitability of the neurons. […] These and other aspects of the method will be more fully appreciated from the following discussion of the investigations.

Data set [2] can be described thus: Solubility of BDF monomer. It counts as physicochemical. The source says:
Though existing methods of synthesizing n-PBDF are efficient, they are unsuitable within living systems. […] Existing synthesis methods also require high temperatures and employ dimethyl sulfoxide (DMSO) as a solvent. To overcome this limitation, methods were investigated for synthesizing n-PBDF in aqueous media using surfactants, which are also utilized in the synthesis of conductive polymer nanoparticles. […] Using TPGS as a surfactant, n-PBDF can be polymerized in aqueous media through emulsion polymerization. By incorporating an insignificant amount (5%) of DMSO and 1% w/w TPGS, this method was found suitable for use in biological systems, as discussed below.

For data set [3], the system named is red blood cells. As to the kind of experiment: Hemolysis assay on reaction components. The class given is cell-based. The settings on record: 0.2 mg/mL. The protocol: To evaluate the efficacy of polymerization without the need for constant stirring, a method was employed whereby the solution was placed in an incubator with a rocker at 37° C. Upon introduction of whole blood into the reaction vessel without stirring, a sluggish reaction was observed, and the vessel turned black after three hours into the reaction. […] Based on these observations from the reaction without stirring, it was deduced the lysis of the RBCs with the BDF monomer. To confirm, a hemolysis assay was used on the various reaction components and with different BDF concentrations. […] This explained the initial slow reaction and formation of n-PBDF without stirring.

For data set [4], the system named is zebrafish embryos. As to the kind of experiment: BDF injection into the vasculature of zebrafish embryos, in vivo polymerization and viability. The protocol:
Finally, BDF monomer with 1% w/w TPGS in the PBS media solution was injected in the vasculature of 3-day post-fertilization zebrafish embryos to validate the whole blood catalyzed in vivo polymerization of BDF to synthesize n-PBDF. The fish embryos were injected at the end of the tail (FIG. 5A) with different BDF concentrations from 1 mM to 15 mM and kept inside an incubator at 34° C. […] To prevent the misconception of pigmentation in the skin of the embryos as a darkened yolk, zebrafish embryos were treated with 1-phenyl 2-thiourea (PTU). PTU treatment removed the pigment from the skin, allowing for better visualization of the darkening of the embryo's yolk (FIG. 5C). In the case of a 1 mM BDF concentration injection, a clear yolk was observed similar to that seen in control zebrafish embryos. Significant darkening happened when the concentration was increased to 10 mM. Furthermore, 15 mM BDF concentration was injected into the zebrafish embryo, where the yolk was even darker with respect to the 10 mM BDF concentration injection. To characterize the darkened yolk, UV-Vis-NIR measurements were collected on all zebrafish embryos with different concentrations of BDF injections along with the control fish (only PBS injection). […]

Data set [5] relates to A549 lung cancer cells. The class given is cell-based. The source says:
Because the BDF monomer can lyse the RBCs, the cytotoxicity of the BDF monomer and n-PBDF in A549 lung cancer cells was further studied. It was observed that the n-PBDF polymer is non-toxic to cancer cells, with cell viability remaining close to 100% regardless of the polymer concentration. […] Although the BDF monomer is toxic in cancer cells, it may not impede the in vivo polymerization process, as once the polymerization reaction begins, the toxicity quickly diminishes.

Data set [6] relates to primary motor cortex (M1). Details: species or system mice. Particulars: mouse, in vivo.

A word on the cell viability: it is a read-out of living cells in per cent, often relative to untreated cells. A low value points to a greater loss of cells. For the compound `O=C1Cc2cc3c(cc2O1)CC(=O)O3` [BDF, 3,7-dihydrobenzo[1,2-b:4,5-b′]difuran-2,6-dione], the “complete blood count (CBC), signs of acute toxicity” value in data set [1] is on record as “no signs of acute toxicity except for a minor level of hemolysis”. The “physical stress or discomfort” value in data set [1] is “No physical stress or discomfort was observed”. Also, the “solubility in aqueous media” value in data set [2] (aqueous media) is recorded as “insoluble”. The “solubility in organic solvents” value in data set [2] (organic solvents) is recorded as “limited solubility”. Further, in data set [3], the hemolysis entry is on record as “approximately 40%”. In addition, in data set [4] (after 24 h incubation, BDF 1 mM to 15 mM, 34° C.), the embryos alive entry is reported as “at least 80%”. In addition, the “toxicity of BDF injection and in vivo polymerization” value in data set [4] (zebrafish embryos) was “almost no toxicity”. For the same compound, the cell viability entry in data set [5] is listed as “slightly improved cell viability at higher concentrations”; in data set [5] (human, 72 h, 5 μg/mL), “approximately 75%”; in data set [5] (human, 72 h, 0.167 mg/mL), “around 10%”.
Consider “n-doped poly(3,7-dihydrobenzo[1,2-b:4,5-b′]difuran-2,6-dione [n-PBDF]”, for which the cell viability in data set [5] is recorded as about 100%. Further, the “retention at the injection site” value in data set [6] is listed as “remained in the injection site for extended periods”.
